Laboratory results reported in publication PMC6790002, “Synthesis and Biological Evaluation of Structurally Varied 5′-/6′-Isonucleosides and Theobromine-Containing N-Isonucleosidyl Derivatives” (Pharmaceuticals, 2019).
Several values for one entry are separate records, joined by “and”; a condition that tells them apart may be missing. Identical values can stand only once. Counter-ions that a name gives are not always drawn. Like-named read-outs stand apart in the source and are kept apart here.

Columns and labels:
[1] = biological target: T1, butyrylcholinesterase (BChE, from equine serum) (Equus caballus, UniProt P81908); assay: Butyrylcholinesterase inhibition, Ellman's method; format: biochemical; settings: for inhibition at 50 µM / % Inhibition of BChE: at 50 µM compound
T1 construct: Butyrylcholinesterase (from equine serum) was bought from Sigma; purchased Sigma; host or cells: equine serum
T1 sequence (P81908 whole entry): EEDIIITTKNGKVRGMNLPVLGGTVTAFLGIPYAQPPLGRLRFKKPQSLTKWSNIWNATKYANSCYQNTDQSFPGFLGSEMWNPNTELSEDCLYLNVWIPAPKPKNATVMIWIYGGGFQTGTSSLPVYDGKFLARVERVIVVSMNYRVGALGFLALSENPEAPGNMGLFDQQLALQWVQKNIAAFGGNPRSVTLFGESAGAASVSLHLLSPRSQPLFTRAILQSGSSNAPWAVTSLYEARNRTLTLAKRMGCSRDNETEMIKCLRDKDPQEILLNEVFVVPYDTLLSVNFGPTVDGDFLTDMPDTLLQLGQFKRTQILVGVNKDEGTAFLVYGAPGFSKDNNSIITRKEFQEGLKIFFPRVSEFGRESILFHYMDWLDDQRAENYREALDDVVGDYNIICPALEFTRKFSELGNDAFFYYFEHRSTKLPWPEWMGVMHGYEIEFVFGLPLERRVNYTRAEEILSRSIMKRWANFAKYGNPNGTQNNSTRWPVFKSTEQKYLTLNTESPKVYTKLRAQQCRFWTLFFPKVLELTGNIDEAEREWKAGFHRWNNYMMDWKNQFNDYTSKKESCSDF

[2] = biological target: T2, acetylcholinesterase (AChE, from Electrophorus electricus) (Electrophorus electricus, UniProt O42275); assay: Acetylcholinesterase inhibition, Ellman's method; format: biochemical; settings: for inhibition at 50 µM / % Inhibition of AChE: at 50 µM compound
T2 construct: purchased Fluka
T2 sequence (O42275 24-633): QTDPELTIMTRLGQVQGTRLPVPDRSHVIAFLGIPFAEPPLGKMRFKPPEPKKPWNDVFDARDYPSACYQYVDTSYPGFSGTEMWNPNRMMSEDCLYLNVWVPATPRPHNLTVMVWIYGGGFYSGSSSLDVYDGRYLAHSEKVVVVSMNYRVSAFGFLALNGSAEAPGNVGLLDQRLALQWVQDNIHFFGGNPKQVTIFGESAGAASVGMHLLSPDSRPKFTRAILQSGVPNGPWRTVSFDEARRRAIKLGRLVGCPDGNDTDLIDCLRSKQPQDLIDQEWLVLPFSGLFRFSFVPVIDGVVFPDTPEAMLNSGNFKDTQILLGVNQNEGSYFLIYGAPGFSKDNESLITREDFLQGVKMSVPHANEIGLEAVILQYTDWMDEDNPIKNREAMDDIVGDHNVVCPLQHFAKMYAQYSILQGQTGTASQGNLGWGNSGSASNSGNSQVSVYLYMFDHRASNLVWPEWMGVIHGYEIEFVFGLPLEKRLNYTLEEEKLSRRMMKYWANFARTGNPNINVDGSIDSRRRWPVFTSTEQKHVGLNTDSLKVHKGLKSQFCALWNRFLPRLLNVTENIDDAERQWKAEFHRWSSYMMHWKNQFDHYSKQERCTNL

[3] = system: acetylcholinesterase (AChE); settings: Figure 1, cited from earlier work

Compound | inhibition at 50 µM [1] | inhibition at 50 µM [2] | also measured
CCCCCCCCCCCCO[C@H]1[C@@H](Cn2c(=O)c3c(ncn3C)n(C)c2=O)OC(NS(C)(=O)=O)[C@@H]1OC(C)=O (stereo partly drawn) [Compound 12, N-[2-O-Acetyl-1,5-dideoxy-5-(3,7-dimethyl-3,7-dihydro-2,6-dioxo-1H-purin-1-yl)-3-O-dodecyl-α,β-D-xylofuranos-1-yl]methanesulfonamide] | 4.6% | 1% | inhibitory effect on BChE (in words) [1]: devoid of any inhibitory effects; inhibitory effect on AChE (in words) [2]: devoid of any inhibitory effects
CCCCCCCCCCCCO[C@@H]1[C@H]2OC(C)(C)O[C@H]2O[C@@H]1Cn1c(=O)c2c(ncn2C)n(C)c1=O [Compound 3, 1-(5-Deoxy-3-O-dodecyl-1,2-O-isopropylidene-α-D-xylofuranos-5-yl)-3,7-dimethyl-3,7-dihydro-1H-purine-2,6-dione] | 11.7% | 13.8% | –
1-(5-Deoxy-3-O-dodecyl-α-D-xylofuranos-5-yl)-3,7-dimethyl-3,7-dihydro-1H-purine-2,6-dione [Compound 18] | – | – | % Inhibition of BChE [1]: 19.6%; % Inhibition of AChE [2]: 14.5%
CCCCCCCCCCCCO[C@@H]1[C@H]2OC(C)(C)O[C@H]2O[C@@H]1Cn1c(=O)cc[nH]c1=O [Compound 7, 3-(5-deoxy-3-O-dodecyl-1,2-O-isopropylidene-α-D-xylofuranos-5-yl)uracil] | 7.5% | 17.8% | –
CCCCCCCCCCCCO[C@@H]1[C@H]2OC(C)(C)O[C@H]2O[C@@H]1COc1ccnc(OC[C@H]2O[C@@H]3OC(C)(C)O[C@@H]3[C@H]2OCCCCCCCCCCCC)n1 [Compound 9, 2,4-bis-O-(5-deoxy-3-O-dodecyl-1,2-O-isopropylidene-α-D-xylofuranos-5-yl)uracil] | 29.8% | 40.3% | Ki′ (uncompetitive inhibition), AChE [2]: 103.0 µM and 103.0 ± 4.3 µM; type of inhibition, AChE [2]: mixed-type; Ki ([2]; read-out: Ki (competitive inhibition), AChE): 17.5 ± 0.7 µM
CO[C@H]1O[C@H](Cn2c(=O)c3c(ncn3C)n(C)c2=O)[C@@H](OC(C)=O)[C@H](OC(C)=O)[C@H]1OC(C)=O [A] | – | – | inhibition of AChE (in words) ([3]; theobromine 6′-isonucleoside): good inhibitory effect
CCCCCCCCCCCCO[C@@H]1[C@H]2OC(C)(C)O[C@H]2O[C@@H]1Cn1ccc(=O)[nH]c1=O [Compound 6, 1-(5-Deoxy-3-O-dodecyl-1,2-O-isopropylidene-α-D-xylofuranos-5-yl)uracil] | 28.5% | 22.5% | –
CCCCCCCCCCCCO[C@@H]1[C@H]2OC(C)(C)O[C@H]2O[C@@H]1Cn1cnc2c(Cl)nc(NC(C)=O)nc21 [Compound 5, 2-Acetamido-6-chloro-9-(5-deoxy-3-O-dodecyl-1,2-O-isopropylidene-α-D-xylofuranos-5-yl)purine] | 32.5% | 25.3% | –
CCCCCCCCCCCCO[C@H]1[C@@H](Cn2c(=O)c3c(ncn3C)n(C)c2=O)OC(O)[C@@H]1O (stereo partly drawn) [Compound 10, 1-(5-Deoxy-3-O-dodecyl-α,β-D-xylofuranos-5-yl)-3,7-dimethyl-3,7-dihydro-1H-purine-2,6-dione] | 22.9% | 2.6% | –
CCCCCCCCCCCCO[C@@H]1[C@H]2OC(C)(C)O[C@H]2O[C@@H]1Cn1ccc(=O)n(C[C@H]2O[C@@H]3OC(C)(C)O[C@@H]3[C@H]2OCCCCCCCCCCCC)c1=O [Compound 8, 1,3-bis-(5-deoxy-3-O-dodecyl-1,2-O-isopropylidene-α-D-xylofuranos-5-yl)uracil] | 32.8% | 26.1% | –
CCCCCCCCCCCCO[C@@H]1[C@H]2OC(C)(C)O[C@H]2O[C@@H]1Cn1cnc2c(N)ncnc21 [Compound 4, 9-(5-Deoxy-3-O-dodecyl-1,2-O-isopropylidene-α-D-xylofuranos-5-yl)adenine] | 11.9% | 16.3% | –
COc1ccc2c3c1O[C@H]1C[C@@H](O)C=C[C@@]31CCN(C)C2 [Galantamine hydrobromide, galantamine hydrobromide, reference compound] | 86.3% | – | type of inhibition, BChE [1]: competitive
CCCCCCCCCCCCO[C@@H]1[C@@H](OC(C)=O)[C@@H](N=[N+]=[N-])O[C@@H]1Cn1c(=O)c2c(ncn2C)n(C)c1=O [Compound 13-α, 1-(2-O-Acetyl-1-azido-1,5-dideoxy-3-O-dodecyl-α-D-xylofuranos-5-yl)-3,7-dimethyl-3,7-dihydro-1H-purine-2,6-dione] | 35% | 18.9% | inhibitory effect on BChE (in words) [1]: devoid of any inhibitory effects; inhibitory effect on AChE (in words) [2]: devoid of any inhibitory effects
N-[2,4-Di-O-acetyl-1,6-dideoxy-6-(3,7-dimethyl-3,7-dihydro-2,6-dioxo-1H-purin-1-yl)-3-O-dodecyl-α,β-D-glucopyranos-1-yl]methanesulfonamide [Compound 22] | – | – | % Inhibition of BChE ([1]; 50 µM): 53% and 52.6%; % Inhibition of AChE [2]: 28.3%
CC(=O)O[C@H]1C(NS(C)(=O)=O)O[C@H](Cn2c(=O)c3c(ncn3C)n(C)c2=O)[C@@H]1OCc1ccccc1 (some centres unmarked) [B] | – | – | inhibition of AChE (in words) ([3]; N-isonucleosidyl sulfonamide): micromolar and selective inhibition of AChE
